“Also recorded” adds a separate entry of the source.
Tests used:
human cardiomyocytes = assay: Uptake of FITC-labeled peptides in human cardiomyocytes, fluorescence microscopy; assay type: cell-based; details: 2.25 μM FITC-labeled peptide
Description: Immortalized human cardiomyocytes (applied biological materials, Canada) were grown in Prigrow I medium supplemented with 10% FBS and 1% P/S in collagen coated flasks. Cells were plated in collagen coated glass slides in 6 wells plates and grown until confluence prior to experiments.
(§1) Fluorescently labeled peptides were labeled using fluorescein isothiocyanate (FITC) and were obtained from Pepscan (Lelystad, the Netherlands). The FITC-label was attached to an Ahx (6-aminohexanoic acid) spacer which was added to the N-terminal end of the peptide, the C-terminal part was amidated and peptides were made circular by disulfide cyclization. Peptides according to the invention had cysteine flanking moieties wherein the flanking moieties were directly adjacent to the targeting sequences SEQ ID NOs: 14-25.
(§2) Human control myotubes and primary human cardiomyocytes were washed 2 times with PBS and incubated with 2.25 μM of FITC-labeled peptides in serum free media for 3 h at 37° C. and 5% CO2. Cells were washed 3 times with PBS and fixed with cold methanol (−20° C.) for 5 min (human control myotubes) or 10 min (human cardiomyocytes). Subsequently the glass slides were shortly air dried, and embedded on microscope slides with Vectashield hard set with 4′,6-diamidino-2-phenylindole (DAPI) mounting media (Vector laboratories). After drying 30 min, slides were analyzed with fluorescence microscopy (Leica DM5500 B) using a CCD camera (Leica DFC 360 FX). Representative pictures are shown.
FITC-labeled peptides comprising SEQ ID NO:24 or SEQ ID NO: 25 were incubated at a dose of 2.25 μM, slides were imbedded in mounting media containing DAPI and analyzed with Leica microscopy using a CCD camera (Leica DFC 360 FX); Human control myotubes for 1 or 3 h (FIG. 3a) and human cardiomyocytes for 3 h (FIG. 3b).

Human control myotubes = assay: Uptake of FITC-labeled peptides in human control myotubes, fluorescence microscopy; assay type: cell-based; details: 2.25 μM FITC-labeled peptide
Description: Human control myoblasts (Km155.c25 cells, (Zhu et al., 2007)) were grown in skeletal muscle cell growth medium (Promocell, C-23160) supplemented with an extra 15% FBS (from, Gibco, the Netherlands) and 50 μg/ml gentamicin (PAA Laboratories) in uncoated flasks until 70-80% confluence was reached. Cells were plated in a 6 wells plate with 0.5% gelatin coated glass slides (Sigma Aldrich, the Netherlands), at a density of 1×10^5 cells per well, 48 hours prior to differentiation. Reaching 90% confluence, medium was switched to differentiation medium (Dulbecco's medium (without phenol red) with 2% FBS, 50 μg/ml gentamicin, 2% glutamax and 1% glucose (all from Gibco-BRL, the Netherlands)). Cells were allowed to differentiate for 3-5d.
as §1
as §2, with “shown. […]” for “shown.”
The linear versions of the peptides comprising SEQ ID NO: 24 or SEQ ID NO: 25, in which the Cys residues were replaced with Ala residues, were labelled as described above and incubated with human control myotubes for 3 h (FIG. 3d).

| Substance | fluorescence in the cells (human cardiomyocytes; 3 h) | fluorescence in the cells (human cardiomyocytes; 3 h, listed as SEQ ID NO:24) | fluorescence in the cells (Human control myotubes; 1 h) | fluorescence in the cells (Human control myotubes; 3 h) | fluorescence in the cells (Human control myotubes; 3 h, listed as SEQ ID NO:24) | fluorescence in the cells (human cardiomyocytes; 10 minutes) | fluorescence in the cells (Human control myotubes; 10 minutes) |
| --- | --- | --- | --- | --- | --- | --- | --- |
| SEQ ID NO: 24: FITC-Ahx N-terminal, C-terminal amide, disulfide-cyclized peptide with Cys residues flanking targeting sequence LNSLFGS (N-terminal FITC-Ahx, C-terminal amide, disulfide cyclized; Randomly generated peptide) | Brightest fluorescence | clear fluorescence throughout the cells and in the nuclei | clear fluorescence throughout the cells and in the nuclei | Brightest fluorescence | clear fluorescence throughout the cells and in the nuclei | – | – |
| SEQ ID NO: 25: FITC-Ahx N-terminal, C-terminal amide, disulfide-cyclized peptide with Cys residues flanking targeting sequence QLFPLFR (N-terminal FITC-Ahx, C-terminal amide, disulfide cyclized; Randomly generated peptide) | Brightest fluorescence; also recorded: clear fluorescence throughout the cells and in the nuclei | – | clear fluorescence throughout the cells and in the nuclei | Brightest fluorescence; also recorded: clear fluorescence throughout the cells and in the nuclei | – | positive fluorescence | positive fluorescence |

Reference: US11459358B2, “Substances for targeting various selected organs or tissues” (BioMarin Technologies B.V., priority 2016, dated 2022)
